Key:
[1] = biological target: T1, Polyunsaturated fatty acid 5-lipoxygenase (Rattus norvegicus) (UniProt P12527); test: Inhibition of rat 5-lipoxygenase in rat RBL1 cells at 30 uM; format: cell-based; conditions: RBL-1
T1 sequence (whole entry): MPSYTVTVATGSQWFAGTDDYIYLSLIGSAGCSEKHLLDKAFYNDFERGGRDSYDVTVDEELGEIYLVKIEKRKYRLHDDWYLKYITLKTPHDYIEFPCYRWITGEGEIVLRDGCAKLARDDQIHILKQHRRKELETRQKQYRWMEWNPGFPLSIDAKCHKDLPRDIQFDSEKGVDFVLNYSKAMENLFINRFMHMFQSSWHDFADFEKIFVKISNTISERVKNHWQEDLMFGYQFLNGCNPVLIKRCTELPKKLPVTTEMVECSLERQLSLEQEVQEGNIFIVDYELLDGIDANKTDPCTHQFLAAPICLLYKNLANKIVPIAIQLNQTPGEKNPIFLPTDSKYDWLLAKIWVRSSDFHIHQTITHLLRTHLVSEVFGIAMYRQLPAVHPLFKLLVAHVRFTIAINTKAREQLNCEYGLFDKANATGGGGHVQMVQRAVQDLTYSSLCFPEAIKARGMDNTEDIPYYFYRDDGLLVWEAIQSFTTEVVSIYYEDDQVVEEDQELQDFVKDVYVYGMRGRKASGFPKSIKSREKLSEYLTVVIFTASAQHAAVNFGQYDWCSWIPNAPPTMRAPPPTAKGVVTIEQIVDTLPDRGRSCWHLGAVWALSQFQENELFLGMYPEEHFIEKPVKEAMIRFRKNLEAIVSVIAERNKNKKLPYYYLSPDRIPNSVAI

[2] = biological target: T1, Polyunsaturated fatty acid 5-lipoxygenase (Rattus norvegicus); conditions: RBL-1, 15 uM
Description: Inhibition of rat 5-lipoxygenase in rat RBL1 cells at 15 uM

Structure (SMILES) | inhibition [1] | inhibition [2]
COC(=O)c1ccc(O)c(Oc2cc(C(=O)OC)ccc2O)c1 | 64% | 
O=C1CCN(c2ccccc2)N1 |  | 50%

— ChEMBL document CHEMBL1148062, “Cylindol A, a novel biphenyl ether with 5-lipoxygenase inhibitory activity, and a related compound from Imperata Cylindrica” (J Nat Prod, 1994)
